According to patent EP4592286A1, “MACROCYCLIC NITROGEN-CONTAINING CROWN ETHER COMPOUND AND USE THEREOF AS PROTEIN KINASE INHIBITOR” (Artivila Biopharma, priority 2022, dated 2024):

Tests used:
Assay type in all cases: biochemical
JAK1 = JAK1 (Homo sapiens, UniProt P23458); experiment: experiment of inhibiting kinase activity (Caliper mobility shift assay), JAK1; details: read-out: inhibition rate JAK1; for inhibition at 0.1 µM: at 100 nM; for inhibition at 0.01 µM: at 10 nM
Protocol: (§1) The inhibition rates of tested compounds on JAK1, JAK2, JAK3, TYK2, CDK7, CDK9, EGFR (T790M) and LRRK2 kinases were measured. The test concentrations of the compounds were 10 nM and 100 nM, and the detection was performed by replicate wells. Alternatively, compounds were 3-fold serial diluted from 10 µM for 10 concentrations in replicate wells.
(§2) The inhibitory effects of the compounds on JAK1, JAK2, JAK3, CDK7 and CDK9 kinases were detected by the method of Caliper mobility shift assay. 250 nL of the compound at 100-fold final concentration was transferred to a destination plate 384-well-plate by using a liquid handler Echo 550. A kinase solution at 2.5-fold final concentration was prepared with 1×kinase buffer. 10 µL of the kinase solution with 2.5-fold final concentration was added to compound wells and positive control wells; and 10 µL of 1×kinase buffer was added to negative control wells. The mixture was centrifuged at 1000 rpm for 30 seconds and then incubated at room temperature for 10 minutes. A mixed solution of ATP and kinase substrate at 5/3-fold final concentration was prepared with 1×kinase buffer, and 15 µL of the mixed solution of ATP and substrate at 5/3-fold final concentration was added to start the reaction. The 384-well plate was centrifuged at 1000 rpm for 30 seconds, shaked and mixed evenly, then incubated at room temperature for a corresponding time. 30 µL of stop solution was added to stop the kinase reaction, the mixture was centrifuged at 1000 rpm for 30 seconds, and shaked and mixed evenly. The conversion rate was read by Caliper EZ Reader. The conversion inhibition rate%=(average positive control conversion rate%-sample conversion rate%)/(average positive control conversion rate%-average negative control conversion rate%). Where negative control wells represent the conversion readings of the background well of kinase buffer; and positive control wells represent the conversion readings of wells without compound inhibition. With the log value of concentration as the x axis and the percentage inhibition rate as the y axis, the dose-response curve was fitted by the log (inhibitor) vs. response-variable slope of the analyzing softwar GraphPad Prism 5, and the IC50 values of each compound on enzyme activity were obtained. Calculation formula is as follows: y=Bottom+(Top-Bottom)/(1+10^((LogIC50-x)×hillslope)), where x is logarithm of inhibitor concentration; and Y is % inhibition rate.

JAK3 = biological target: T1, JAK3 (Homo sapiens, UniProt P52333); experiment: experiment of inhibiting kinase activity (Caliper mobility shift assay), JAK3; details: read-out: inhibition rate JAK3; for inhibition at 0.1 µM: at 100 nM; for inhibition at 0.01 µM: at 10 nM
T1 sequence (P52333 1-1124): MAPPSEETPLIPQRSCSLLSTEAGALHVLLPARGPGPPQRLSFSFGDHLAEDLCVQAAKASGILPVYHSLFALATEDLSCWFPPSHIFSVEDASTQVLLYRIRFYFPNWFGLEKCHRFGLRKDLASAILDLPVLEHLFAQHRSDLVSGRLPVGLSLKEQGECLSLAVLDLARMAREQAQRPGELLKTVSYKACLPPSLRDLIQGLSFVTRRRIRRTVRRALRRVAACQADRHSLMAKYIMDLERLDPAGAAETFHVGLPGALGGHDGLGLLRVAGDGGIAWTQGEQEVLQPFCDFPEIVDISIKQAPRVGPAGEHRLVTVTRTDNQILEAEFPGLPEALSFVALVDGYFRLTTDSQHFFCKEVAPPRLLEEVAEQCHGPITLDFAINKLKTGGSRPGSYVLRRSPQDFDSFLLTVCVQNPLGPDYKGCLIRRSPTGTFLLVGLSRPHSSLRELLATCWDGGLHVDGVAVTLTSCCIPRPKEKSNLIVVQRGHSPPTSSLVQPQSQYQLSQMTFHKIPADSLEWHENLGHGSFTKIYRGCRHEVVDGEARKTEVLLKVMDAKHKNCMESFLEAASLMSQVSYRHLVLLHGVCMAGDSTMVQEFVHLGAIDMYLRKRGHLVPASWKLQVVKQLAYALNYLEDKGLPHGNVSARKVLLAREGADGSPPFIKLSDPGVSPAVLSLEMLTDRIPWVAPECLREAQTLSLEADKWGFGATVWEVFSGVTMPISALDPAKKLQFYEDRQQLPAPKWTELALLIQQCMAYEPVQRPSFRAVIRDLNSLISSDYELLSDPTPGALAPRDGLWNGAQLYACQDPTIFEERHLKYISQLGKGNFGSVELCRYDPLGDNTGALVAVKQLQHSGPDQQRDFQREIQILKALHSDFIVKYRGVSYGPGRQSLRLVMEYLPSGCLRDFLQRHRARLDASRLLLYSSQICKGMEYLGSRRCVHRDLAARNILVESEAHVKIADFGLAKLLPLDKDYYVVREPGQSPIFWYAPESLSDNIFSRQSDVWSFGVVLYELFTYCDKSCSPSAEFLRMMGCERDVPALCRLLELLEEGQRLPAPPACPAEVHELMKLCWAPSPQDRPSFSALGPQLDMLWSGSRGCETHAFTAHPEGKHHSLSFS
Protocol: as §1, §2

TYK2 = TYK2 (Homo sapiens, UniProt P29597); experiment: experiment of inhibiting kinase activity, TYK2; details: read-out: inhibition rate TYK2; for inhibition at 0.1 µM: at 100 nM; for inhibition at 0.01 µM: at 10 nM
TYK2, sequence (P29597 whole entry): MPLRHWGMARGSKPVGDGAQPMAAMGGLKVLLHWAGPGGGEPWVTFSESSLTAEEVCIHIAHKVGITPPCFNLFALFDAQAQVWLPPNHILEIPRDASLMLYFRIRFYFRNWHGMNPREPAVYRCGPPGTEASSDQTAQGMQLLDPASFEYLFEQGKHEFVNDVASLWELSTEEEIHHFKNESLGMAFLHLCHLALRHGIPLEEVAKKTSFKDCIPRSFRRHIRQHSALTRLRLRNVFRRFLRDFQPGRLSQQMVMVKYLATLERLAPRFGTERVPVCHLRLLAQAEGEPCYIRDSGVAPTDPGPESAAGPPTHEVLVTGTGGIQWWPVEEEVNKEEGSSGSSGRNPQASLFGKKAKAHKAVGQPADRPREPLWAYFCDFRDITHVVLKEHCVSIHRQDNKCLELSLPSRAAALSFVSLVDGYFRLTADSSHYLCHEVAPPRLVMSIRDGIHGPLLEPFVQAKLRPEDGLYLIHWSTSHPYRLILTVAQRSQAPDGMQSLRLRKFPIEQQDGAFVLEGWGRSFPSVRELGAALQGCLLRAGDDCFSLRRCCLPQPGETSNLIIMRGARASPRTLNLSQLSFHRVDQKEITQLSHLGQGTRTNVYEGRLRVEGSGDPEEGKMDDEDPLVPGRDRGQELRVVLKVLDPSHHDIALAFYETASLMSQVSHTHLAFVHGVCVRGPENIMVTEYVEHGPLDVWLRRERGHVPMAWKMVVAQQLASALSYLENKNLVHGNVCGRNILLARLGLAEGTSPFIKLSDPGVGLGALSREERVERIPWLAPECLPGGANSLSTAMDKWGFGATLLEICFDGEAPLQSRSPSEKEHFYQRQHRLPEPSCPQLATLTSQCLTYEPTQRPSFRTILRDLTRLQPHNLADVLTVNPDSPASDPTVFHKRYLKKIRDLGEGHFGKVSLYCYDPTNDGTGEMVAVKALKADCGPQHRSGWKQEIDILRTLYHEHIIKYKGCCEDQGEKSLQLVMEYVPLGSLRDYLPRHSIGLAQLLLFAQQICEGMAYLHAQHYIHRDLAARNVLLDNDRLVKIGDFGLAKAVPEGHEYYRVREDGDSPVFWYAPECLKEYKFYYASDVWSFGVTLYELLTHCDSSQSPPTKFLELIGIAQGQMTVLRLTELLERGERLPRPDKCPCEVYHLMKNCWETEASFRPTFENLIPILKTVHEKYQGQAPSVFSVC
Protocol: as §1

LRRK2 = LRRK2 (Homo sapiens, UniProt Q5S007); experiment: experiment of inhibiting kinase activity, LRRK2; details: for inhibition at 0.1 µM: at 100 nM; for inhibition at 0.1 µM / inhibition at 0.01 µM: read-out: inhibition rate LRRK2; for inhibition at 0.01 µM: at 10 nM
LRRK2, sequence (Q5S007 whole entry): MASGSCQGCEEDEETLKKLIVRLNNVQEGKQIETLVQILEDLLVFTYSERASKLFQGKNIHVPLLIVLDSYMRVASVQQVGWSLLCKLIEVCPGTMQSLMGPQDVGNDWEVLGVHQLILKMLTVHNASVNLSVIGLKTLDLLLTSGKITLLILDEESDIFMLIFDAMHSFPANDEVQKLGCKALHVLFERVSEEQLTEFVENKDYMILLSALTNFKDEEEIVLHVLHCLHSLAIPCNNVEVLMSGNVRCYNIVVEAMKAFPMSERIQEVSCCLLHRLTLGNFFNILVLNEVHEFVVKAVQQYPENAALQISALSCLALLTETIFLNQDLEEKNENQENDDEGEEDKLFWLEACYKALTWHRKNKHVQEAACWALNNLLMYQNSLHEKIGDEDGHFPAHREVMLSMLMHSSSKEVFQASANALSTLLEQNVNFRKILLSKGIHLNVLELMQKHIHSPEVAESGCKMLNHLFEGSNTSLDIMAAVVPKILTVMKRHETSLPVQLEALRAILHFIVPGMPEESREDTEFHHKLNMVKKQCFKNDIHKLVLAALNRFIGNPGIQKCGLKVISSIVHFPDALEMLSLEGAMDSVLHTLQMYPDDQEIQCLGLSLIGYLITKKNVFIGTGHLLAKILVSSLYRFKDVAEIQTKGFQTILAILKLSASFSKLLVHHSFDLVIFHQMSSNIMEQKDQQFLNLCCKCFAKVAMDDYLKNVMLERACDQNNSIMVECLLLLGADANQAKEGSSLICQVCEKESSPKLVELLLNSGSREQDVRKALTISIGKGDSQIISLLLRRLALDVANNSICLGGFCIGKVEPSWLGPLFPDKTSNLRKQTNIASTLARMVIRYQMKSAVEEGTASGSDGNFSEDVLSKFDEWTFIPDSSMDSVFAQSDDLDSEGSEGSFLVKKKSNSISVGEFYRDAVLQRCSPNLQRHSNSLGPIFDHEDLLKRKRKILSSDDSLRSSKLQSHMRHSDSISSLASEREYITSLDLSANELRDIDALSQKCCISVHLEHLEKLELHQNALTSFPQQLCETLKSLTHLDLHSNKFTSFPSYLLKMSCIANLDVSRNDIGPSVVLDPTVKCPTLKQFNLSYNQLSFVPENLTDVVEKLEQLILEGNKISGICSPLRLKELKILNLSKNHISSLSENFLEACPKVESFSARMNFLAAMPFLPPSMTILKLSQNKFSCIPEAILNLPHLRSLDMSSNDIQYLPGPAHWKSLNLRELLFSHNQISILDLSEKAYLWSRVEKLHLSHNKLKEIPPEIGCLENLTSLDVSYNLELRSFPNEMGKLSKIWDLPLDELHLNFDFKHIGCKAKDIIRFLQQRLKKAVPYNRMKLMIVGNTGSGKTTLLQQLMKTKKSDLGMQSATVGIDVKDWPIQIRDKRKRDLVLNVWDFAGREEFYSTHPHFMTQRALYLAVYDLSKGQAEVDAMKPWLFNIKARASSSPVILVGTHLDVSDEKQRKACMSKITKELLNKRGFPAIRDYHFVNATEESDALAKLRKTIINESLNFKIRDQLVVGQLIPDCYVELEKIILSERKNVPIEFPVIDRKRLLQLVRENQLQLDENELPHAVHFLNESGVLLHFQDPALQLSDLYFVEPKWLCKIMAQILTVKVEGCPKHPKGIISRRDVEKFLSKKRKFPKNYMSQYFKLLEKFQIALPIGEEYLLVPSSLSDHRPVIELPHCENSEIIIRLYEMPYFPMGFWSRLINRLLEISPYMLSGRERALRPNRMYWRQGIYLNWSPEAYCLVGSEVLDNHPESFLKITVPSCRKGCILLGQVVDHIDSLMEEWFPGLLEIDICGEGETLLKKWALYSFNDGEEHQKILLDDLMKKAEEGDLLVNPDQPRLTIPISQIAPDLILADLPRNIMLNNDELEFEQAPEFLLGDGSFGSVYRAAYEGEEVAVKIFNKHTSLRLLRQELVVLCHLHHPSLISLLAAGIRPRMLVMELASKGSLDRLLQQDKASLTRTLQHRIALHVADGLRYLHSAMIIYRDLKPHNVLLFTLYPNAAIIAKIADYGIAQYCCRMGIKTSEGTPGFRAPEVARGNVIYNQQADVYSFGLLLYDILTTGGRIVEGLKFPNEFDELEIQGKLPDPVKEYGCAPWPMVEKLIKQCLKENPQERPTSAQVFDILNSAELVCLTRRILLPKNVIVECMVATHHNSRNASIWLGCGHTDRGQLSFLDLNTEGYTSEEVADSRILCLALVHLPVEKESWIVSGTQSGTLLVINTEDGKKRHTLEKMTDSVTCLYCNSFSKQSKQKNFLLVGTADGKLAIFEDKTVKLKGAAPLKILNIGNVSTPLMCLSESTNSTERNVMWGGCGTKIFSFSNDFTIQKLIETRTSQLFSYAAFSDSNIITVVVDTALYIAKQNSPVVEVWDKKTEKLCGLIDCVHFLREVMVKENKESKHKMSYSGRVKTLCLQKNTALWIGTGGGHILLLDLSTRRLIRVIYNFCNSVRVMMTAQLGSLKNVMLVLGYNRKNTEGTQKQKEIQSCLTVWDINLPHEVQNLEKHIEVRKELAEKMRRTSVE
Protocol: as §1

JAK2 = JAK2 (Homo sapiens, UniProt O60674); experiment: experiment of inhibiting kinase activity (Caliper mobility shift assay), JAK2; details: for inhibition at 0.1 µM: at 100 nM; for inhibition at 0.1 µM / inhibition at 0.01 µM: read-out: inhibition rate JAK2; for IC50: kinase activity assay, Table 3; for inhibition at 0.01 µM: at 10 nM
Protocol: as §1, §2

CDK7 = CDK7 (Homo sapiens, UniProt P50613); experiment: experiment of inhibiting kinase activity (Caliper mobility shift assay), CDK7; details: read-out: inhibition rate CDK7
Protocol: as §1, §2

JAK1, sequence (P23458 whole entry): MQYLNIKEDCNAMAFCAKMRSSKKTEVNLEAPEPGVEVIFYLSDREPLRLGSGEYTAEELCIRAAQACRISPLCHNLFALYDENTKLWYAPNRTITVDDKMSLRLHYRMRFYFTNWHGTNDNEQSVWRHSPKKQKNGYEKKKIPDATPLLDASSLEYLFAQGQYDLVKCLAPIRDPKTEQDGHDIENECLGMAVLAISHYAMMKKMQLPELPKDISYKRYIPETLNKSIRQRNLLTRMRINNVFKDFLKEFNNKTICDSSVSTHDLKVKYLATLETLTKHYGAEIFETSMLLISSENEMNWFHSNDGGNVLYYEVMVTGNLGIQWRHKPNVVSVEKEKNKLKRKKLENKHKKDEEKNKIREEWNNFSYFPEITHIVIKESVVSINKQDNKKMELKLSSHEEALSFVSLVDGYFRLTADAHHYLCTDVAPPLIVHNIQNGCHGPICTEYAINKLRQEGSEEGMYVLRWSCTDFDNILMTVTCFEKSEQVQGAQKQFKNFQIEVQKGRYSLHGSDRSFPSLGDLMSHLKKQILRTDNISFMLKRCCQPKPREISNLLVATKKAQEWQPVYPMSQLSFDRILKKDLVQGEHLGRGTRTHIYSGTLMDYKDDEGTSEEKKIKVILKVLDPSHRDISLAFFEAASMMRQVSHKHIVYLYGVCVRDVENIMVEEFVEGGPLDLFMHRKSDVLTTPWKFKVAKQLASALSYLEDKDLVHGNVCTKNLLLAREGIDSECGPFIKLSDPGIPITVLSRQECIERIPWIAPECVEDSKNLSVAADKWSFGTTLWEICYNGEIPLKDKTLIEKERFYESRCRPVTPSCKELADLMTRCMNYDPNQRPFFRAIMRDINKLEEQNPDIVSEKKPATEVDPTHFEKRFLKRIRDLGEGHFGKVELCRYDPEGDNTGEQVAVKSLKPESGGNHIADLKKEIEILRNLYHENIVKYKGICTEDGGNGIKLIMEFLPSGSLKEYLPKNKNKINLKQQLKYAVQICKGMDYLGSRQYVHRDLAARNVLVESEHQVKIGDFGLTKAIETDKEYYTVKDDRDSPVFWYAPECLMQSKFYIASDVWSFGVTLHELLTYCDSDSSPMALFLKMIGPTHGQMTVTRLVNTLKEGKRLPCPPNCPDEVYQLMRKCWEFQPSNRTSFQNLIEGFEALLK

Row | Structure (SMILES) | inhibition at 0.01 µM (JAK1) [%] | inhibition at 0.01 µM (JAK3) [%] | inhibition at 0.01 µM (TYK2) [%] | inhibition at 0.01 µM (LRRK2) [%] | inhibition at 0.01 µM (JAK2) [%] | also measured
1 | CN1CCOc2ccc(Nc3nc(-c4ccc(C(=O)NCC#N)cc4)c4cn[nH]c4n3)cc2OCC1 [Example 38, N-(cyanomethyl)-4-(6-((4-methyl-3,4,5,6-tetrahydro-2H-benzo[b][1,4,7]dioxazolin-9-yl)amino)-1H-pyrazolo[3,4-d]pyrimidin-4-yl)benzamide] | – | – | – | – | – | inhibition at 0.1 µM (JAK1): 40 to 79%; inhibition at 0.1 µM (JAK3): 25 to 39%; inhibition at 0.1 µM (TYK2): 40 to 79%; inhibition at 0.1 µM (LRRK2): 40 to 79%; IC50 (LRRK2; kinase activity assay, Table 3): 50 to 200 nM; inhibition at 0.1 µM (JAK2): > 80%; IC50 (JAK2): < 50 nM
2 | CN1CCOc2ccc(Nc3nc(-c4cn(C)c5ccccc45)c4cn[nH]c4n3)cc2OCC1 [Example 5, 4-methyl-N-(4-(1-methyl-1H-indol-3-yl)-1H-pyrazolo[3,4-d]pyrimidin-6-yl)-3,4,5,6-tetrahydro-2H-benzo[b][1,4,7]dioxazolin-9-amine] | – | – | – | – | – | inhibition at 0.1 µM (CDK7; at 100 nM): 25 to 39%
3 | CN1CCOCCOc2ccc(Nc3nc(-c4cnn(C(CC#N)C5CCCC5)c4)c4cc[nH]c4n3)cc2OCC1 (stereo not drawn) [Example 48, 3-cyclopentyl-3-(4-(2-((7-methyl-2,3,6,7,8,9-hexahydro-5H-benzo[b][1,4,7]trioxa [10]azacyclododecan-12-yl)amino)-7H-pyrrolo[2,3-d]pyrimidin-4-yl)-1H-pyrazol-1-yl) propionitrile] | > 80 | > 80 | > 80 | > 80 | > 80 | –
4 | CN1CCOCCOc2ccc(Nc3ncc(F)c(Nc4cccc(S(=O)(=O)NC(C)(C)C)c4)n3)cc2OCC1 [Example 40, N-(tert-butyl)-3-((5-fluoro-2-((7-methyl-2,3,6,7,8,9-hexahydro-5H-benzo[b][1,4,7]trioxa[10]azacyclododecan-12-yl)amino)pyrimidin-4-yl)amino)benzenesulfonamide] | – | – | – | – | > 80 | inhibition at 0.1 µM (JAK1): 25 to 39%; inhibition at 0.1 µM (JAK3): 25 to 39%; inhibition at 0.1 µM (TYK2): 40 to 79%; inhibition at 0.1 µM (LRRK2): 25 to 39%; inhibition at 0.1 µM (JAK2): > 80%
5 | CN1CCOCCOc2cc(Nc3ncc(F)c(Nc4cccc(S(=O)(=O)NC(C)(C)C)c4)n3)ccc2OCC1 [Example 9, N-(tert-butyl)-3-((5-fluoro-2-((7-methyl-2,3,6,7,8,9-hexahydro-5H-benzo[b][1,4,7]trioxa[10]azacyclododecan-13-yl)amino)pyrimidin-4-yl)amino)benzenesulfonamide] | – | – | – | – | > 80 | inhibition at 0.1 µM (JAK1): 25 to 39%; inhibition at 0.1 µM (JAK3): 40 to 79%; inhibition at 0.1 µM (TYK2): 40 to 79%; inhibition at 0.1 µM (LRRK2): 40 to 79%; inhibition at 0.1 µM (JAK2): > 80%; IC50 (JAK2): < 50 nM
6 | C=CC(=O)Nc1cc(C)ccc1Nc1nc(Nc2ccc3c(c2)OCCN(C)CCO3)ncc1C(F)(F)F [Example 112, N-(5-methyl-2-((2-((4-methyl-3,4,5,6-tetrahydro-2H-benzo[b][1,4,7]dioxazolin-9-yl)amino)-5-(trifluoromethyl)pyrimidin-4-yl)amino)phenyl)acrylamide] | – | – | – | – | – | inhibition at 0.01 µM (CDK7; at 10 nM): 40 to 79%
7 | CN1CCOCCOc2cc(Nc3nc(-c4ccc(C(=O)NCC#N)cc4)c4cc[nH]c4n3)ccc2OCC1 [Example 17, N-(cyanomethyl)-4-(2-((7-methyl-2,3,6,7,8,9-hexahydro-5H-benzo[b][1,4,7]trioxa [10]azacyclododecan-13-yl)amino)-7H-pyrrolo[2,3-d]pyrimidin-4-yl)benzamide] | 40 to 79 | 40 to 79 | 40 to 79 | 40 to 79 | > 80 | –

The next lines start with results.

Row | inhibition at 0.01 µM (JAK1) [%] | inhibition at 0.01 µM (JAK3) [%] | inhibition at 0.01 µM (TYK2) [%] | inhibition at 0.01 µM (LRRK2) [%] | inhibition at 0.01 µM (JAK2) [%] | Structure (SMILES) | also measured
8 | 25 to 39 | > 80 | > 80 | 40 to 79 | > 80 | CN1CCOCCOc2cc(Nc3nc(-c4cnn([C@H](CC#N)C5CCCC5)c4)c4cc[nH]c4n3)ccc2OCC1 [Example 74, (R)-3-cyclopentyl-3-(4-(2-((7-methyl-2,3,6,7,8,9-hexahydro-5H-benzo[b][1,4,7]trioxa[10]azacyclododecan-13-yl)amino)-7H-pyrrolo[2,3-d]pyrimidin-4-yl)-1H-pyrazol-1-yl) propionitrile] | –
9 | > 80 | > 80 | > 80 | > 80 | > 80 | CN1CCOc2ccc(Nc3nc(-c4cnn([C@@H](CC#N)C5CCCC5)c4)c4cc[nH]c4n3)cc2OCC1 [Example 77, (S)-3-cyclopentyl-3-(4-(2-((4-methyl-3,4,5,6-tetrahydro-2H-benzo[b][1,4,7]dioxazolin-9-yl)amino)-7H-pyrrolo[2,3-d]pyrimidin-4-yl)-1H-pyrazol-1-yl)propanenitrile] | –
10 | 40 to 79 | 40 to 79 | 25 to 39 | 25 to 39 | > 80 | CN1CCOCCOc2ccc(Nc3nc(-c4ccc(C(=O)NCC#N)cc4)c4cc[nH]c4n3)cc2OCC1 [Example 51, N-(cyanomethyl)-4-(2-((7-methyl-2,3,6,7,8,9-hexahydro-5H-benzo[b][1,4,7]trioxa [10]azacyclododecan-12-yl)amino)-7H-pyrrolo[2,3-d]pyrimidin-4-yl)benzamide] | –
11 | > 80 | > 80 | > 80 | 40 to 79 | > 80 | CCS(=O)(=O)N1CC(CC#N)(n2cc(-c3nc(Nc4ccc5c(c4)OCCN(C)CCOCCO5)nc4[nH]ccc34)cn2)C1 [Example 49, 2-(1-(ethylsulfonyl)-3-(4-(2-((7-methyl-2,3,6,7,8,9-hexahydro-5H-benzo[b][1,4,7]trioxa[10]azacyclododecan-12-yl)amino)-7H-pyrrolo[2,3-d]pyrimidin-4-yl)-1H-pyrazol-1-yl)azetidin-3-yl)acetonitrile] | –
12 | 40 to 79 | 40 to 79 | > 80 | 40 to 79 | > 80 | CN1CCOc2ccc(Nc3nc(-c4cnn([C@H](CC#N)C5CCCC5)c4)c4cc[nH]c4n3)cc2OCC1 [Example 76, (R)-3-cyclopentyl-3-(4-(2-((4-methyl-3,4,5,6-tetrahydro-2H-benzo[b][1,4,7]dioxazolin-9-yl)amino)-7H-pyrrolo[2,3-d]pyrimidin-4-yl)-1H-pyrazol-1-yl)propanenitrile] | –
